# Test results reported in PubChem BioAssay AID1963862 (Molecular Pharmacology Branch, DTP, NCI, 2024).
# Tested on: KRAS patient-derived spheroids with HUVEC/MSC, viability
# Test: Anticancer human tumor 941728-121-R-J1-PDC patient-derived lung adenocarcinoma cell line growth inhibition [KRAS2]
# Settings: for IC50: curve of first compound; for viability, T/C: stronger effect = lower value
# How it was run: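 Combination screen of spheroid viability in tumor-cell co-cultures with endothelial (HUVEC) and mesenchymal stem cell stroma. Each agent was tested in half-log dilutions, topping at clinical Cmax or at 10 microM without a known Cmax.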
# [1] = second compound 0.1 µM, first compound 0.01 µM
# [2] = second compound 0.1 µM, first compound 0.0316 µM
# [3] = second compound 0.1 µM, first compound 0.1 µM
# [4] = second compound 0.1 µM, first compound 0.316 µM
# [5] = second compound 0.1 µM, first compound 1 µM
# [6] = second compound 0.1 µM, first compound 3.16 µM
# [7] = second compound 0.316 µM, first compound 0.01 µM
# [8] = second compound 0.316 µM, first compound 0.0316 µM
# [9] = second compound 0.316 µM, first compound 0.1 µM
# [10] = second compound 0.316 µM, first compound 0.316 µM
# [11] = second compound 0.316 µM, first compound 1 µM
# [12] = second compound 0.316 µM, first compound 3.16 µM
# [13] = second compound 1 µM, first compound 0.01 µM
# [14] = second compound 1 µM, first compound 0.0316 µM
# [15] = second compound 1 µM, first compound 0.1 µM
# [16] = second compound 1 µM, first compound 0.316 µM
# [17] = second compound 1 µM, first compound 1 µM
# [18] = second compound 1 µM, first compound 3.16 µM
# [19] = second compound 3.16 µM, first compound 0.01 µM
# [20] = second compound 3.16 µM, first compound 0.0316 µM
# [21] = second compound 3.16 µM, first compound 0.1 µM
# [22] = second compound 3.16 µM, first compound 0.316 µM
# [23] = second compound 3.16 µM, first compound 1 µM
# [24] = second compound 3.16 µM, first compound 3.16 µM
# [25] = second compound 10 µM, first compound 0.01 µM
# [26] = second compound 10 µM, first compound 0.0316 µM
# [27] = second compound 10 µM, first compound 0.1 µM
# [28] = second compound 10 µM, first compound 0.316 µM
# [29] = second compound 10 µM, first compound 1 µM
# [30] = second compound 10 µM, first compound 3.16 µM
# [31] = second compound 0.1 µM, first compound 10 µM
# [32] = second compound 0.316 µM, first compound 10 µM
# [33] = second compound 1 µM, first compound 10 µM
# [34] = second compound 3.16 µM, first compound 10 µM
# [35] = second compound 10 µM, first compound 10 µM
# 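Note: spheroids exposed to agents for seven days before readout.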
Compound,IC50 (second compound 0.1 µM),IC50 (second compound 0.316 µM),IC50 (second compound 1 µM),IC50 (second compound 3.16 µM),IC50 (second compound 10 µM),"viability, T/C [2]","viability, T/C [3]","viability, T/C [4]","viability, T/C [5]","viability, T/C [6]","viability, T/C [8]","viability, T/C [9]","viability, T/C [10]","viability, T/C [11]","viability, T/C [14]","viability, T/C [15]","viability, T/C [20]","viability, T/C [21]","viability, T/C [26]","viability, T/C [27]",other results
CC1COCCN1c1cc(-c2ccnn2C)c2ccnc(-c3ccn[nH]3)c2n1 (stereo not given) + CNCc1ccccc1-c1csc(C(C)Nc2nc(C)nc3cc(OC)c(OC)cc23)c1,23.7 nM,< 10 nM,< 10 nM,< 10 nM,< 10 nM,43.3%,39.4%,31.7%,28.2%,26.8%,37.1%,29%,22.8%,22.9%,29.4%,18.8%,1.18%,1.37%,0.11%,0.25%,"viability, T/C [1]: 63.1%; viability, T/C [7]: 41.5%; viability, T/C [12]: 22.6%; viability, T/C [13]: 24.9%; viability, T/C [16]: 19%; viability, T/C [17]: 14%; viability, T/C [18]: 11.4%; viability, T/C [19]: 1.36%; viability, T/C [22]: 0.47%; viability, T/C [23]: 0.45%; viability, T/C [24]: 0.62%; viability, T/C [25]: 0.73%; viability, T/C [28]: 0.12%; viability, T/C [29]: 0.14%; viability, T/C [30]: 0.17%"
CC1OCC2(CCN(c3cnc(Sc4ccnc(N)c4Cl)c(N)n3)CC2)C1N (stereo not given) + CNCc1ccccc1-c1csc(C(C)Nc2nc(C)nc3cc(OC)c(OC)cc23)c1,< 31.6 nM,< 31.6 nM,< 31.6 nM,< 31.6 nM,< 31.6 nM,49.5%,38.1%,38.1%,32.5%,35.3%,41%,34.7%,31.2%,28.9%,37.6%,36.6%,5.49%,2.19%,0.11%,0.12%,"viability, T/C [31]: 34%; viability, T/C [12]: 30.2%; viability, T/C [32]: 30.1%; viability, T/C [16]: 28.2%; viability, T/C [17]: 26.2%; viability, T/C [18]: 20.9%; viability, T/C [33]: 17.8%; viability, T/C [22]: 2.26%; viability, T/C [23]: 2.13%; viability, T/C [24]: 0.72%; viability, T/C [34]: 0.85%; viability, T/C [28]: 0.4%; viability, T/C [29]: 0.22%; viability, T/C [30]: 1.25%; viability, T/C [35]: 0.16%"
Cn1nccc1Nc1nccc(-c2cc3c(s2)C(C)(C)N(CCN2CCOCC2)C3=O)n1 + CNCc1ccccc1-c1csc(C(C)Nc2nc(C)nc3cc(OC)c(OC)cc23)c1,81.2 nM,< 31.6 nM,< 31.6 nM,< 31.6 nM,< 31.6 nM,70.3%,46.4%,37.4%,37.9%,36.8%,40.3%,37.9%,34.8%,32.3%,35.6%,30.3%,1.11%,2.35%,0.56%,0.88%,"viability, T/C [31]: 40.7%; viability, T/C [12]: 31%; viability, T/C [32]: 29.6%; viability, T/C [16]: 31.6%; viability, T/C [17]: 21.3%; viability, T/C [18]: 11.4%; viability, T/C [33]: 13.1%; viability, T/C [22]: 1.61%; viability, T/C [23]: 0.99%; viability, T/C [24]: 1.35%; viability, T/C [34]: 0.25%; viability, T/C [28]: 0.44%; viability, T/C [29]: 0.77%; viability, T/C [30]: 0.11%; viability, T/C [35]: 0.35%"
CC(=O)OC12COC1CC(O)C1(C)C(=O)C(O)C3=C(C)C(OC(=O)C(O)C(NC(=O)OC(C)(C)C)c4ccccc4)CC(O)(C(OC(=O)c4ccccc4)C21)C3(C)C (stereo not given) + COc1cc2nc(C)nc(NC(C)c3cc(N)cc(C(F)(F)F)c3)c2cc1OC1CCOC1,< 10 nM,< 10 nM,< 10 nM,< 10 nM,< 10 nM,41.1%,41.4%,44.9%,41.9%,42.6%,39.5%,36%,34.5%,36.9%,47.8%,49.6%,31.4%,32%,29.1%,30%,"viability, T/C [1]: 37.4%; viability, T/C [7]: 38.2%; viability, T/C [12]: 35.5%; viability, T/C [13]: 35.8%; viability, T/C [16]: 47.3%; viability, T/C [17]: 48%; viability, T/C [18]: 36.1%; viability, T/C [19]: 33.5%; viability, T/C [22]: 31.7%; viability, T/C [23]: 32.7%; viability, T/C [24]: 33.3%; viability, T/C [25]: 31.2%; viability, T/C [28]: 32.7%; viability, T/C [29]: 36.2%; viability, T/C [30]: 32.2%"
CN(C)C/C=C/C(=O)Nc1cc2c(Nc3ccc(F)c(Cl)c3)ncnc2cc1O[C@H]1CCOC1 + COc1cc2nc(C)nc(NC(C)c3cc(N)cc(C(F)(F)F)c3)c2cc1OC1CCOC1,0.885 nM,< 0.316 nM,< 0.316 nM,< 0.316 nM,< 0.316 nM,43.4%,49.3%,,,,31.1%,36.4%,,,33.3%,34.4%,14.8%,15.8%,14.7%,16.4%,"viability, T/C (second compound 0.1 µM, first compound 0.000316 µM): 60.5%; viability, T/C (second compound 0.1 µM, first compound 0.001 µM): 50.3%; viability, T/C (second compound 0.1 µM, first compound 0.00316 µM): 42.9%; viability, T/C [1]: 44.4%; viability, T/C (second compound 0.316 µM, first compound 0.000316 µM): 37.2%; viability, T/C (second compound 0.316 µM, first compound 0.001 µM): 32.5%; viability, T/C (second compound 0.316 µM, first compound 0.00316 µM): 32.5%; viability, T/C [7]: 30.5%; viability, T/C (second compound 1 µM, first compound 0.000316 µM): 40.6%; viability, T/C (second compound 1 µM, first compound 0.001 µM): 34.3%; viability, T/C (second compound 1 µM, first compound 0.00316 µM): 28.9%; viability, T/C [13]: 34.3%; viability, T/C (second compound 3.16 µM, first compound 0.000316 µM): 20.1%; viability, T/C (second compound 3.16 µM, first compound 0.001 µM): 20.4%; viability, T/C (second compound 3.16 µM, first compound 0.00316 µM): 18.3%; viability, T/C [19]: 15.4%; viability, T/C (second compound 10 µM, first compound 0.000316 µM): 19.4%; viability, T/C (second compound 10 µM, first compound 0.001 µM): 15.2%; viability, T/C (second compound 10 µM, first compound 0.00316 µM): 16%; viability, T/C [25]: 14.6%"
O=C(c1cc(Cc2n[nH]c(=O)c3ccccc23)ccc1F)N1CCN(C(=O)C2CC2)CC1 + COc1cc2nc(C)nc(NC(C)c3cc(N)cc(C(F)(F)F)c3)c2cc1OC1CCOC1,> 10000 nM,> 10000 nM,> 10000 nM,< 31.6 nM,46.7 nM,60%,105%,59.7%,93.4%,120%,54.1%,57.4%,55.9%,56.9%,103%,114%,47.7%,50.5%,60.5%,29.5%,"viability, T/C [31]: 79.2%; viability, T/C [12]: 64.4%; viability, T/C [32]: 66.2%; viability, T/C [16]: 126%; viability, T/C [17]: 124%; viability, T/C [18]: 103%; viability, T/C [33]: 100%; viability, T/C [22]: 49%; viability, T/C [23]: 59.8%; viability, T/C [24]: 56.9%; viability, T/C [34]: 54.9%; viability, T/C [28]: 26.1%; viability, T/C [29]: 33.6%; viability, T/C [30]: 20.9%; viability, T/C [35]: 27.6%"
